This note sets out measurements from patent US6911454B1, “Method for potentiating primary drugs in treating multidrug resistant disease” (priority 1989, dated 2005).

Data set [1] concerns DX20. Conditions: FIG. 5; colony formation, 7 days; addition of d-tetrandrine.
Method: The second assay model used, colony formation assay, consisted of 1000-1500 cells, again depending on the proliferation rate of the cell line being added to each well of 24 well microtiter plates in 500 microliters of culture media. The cells were allowed to attach overnight. […] The plates were incubated for a total of 7 days before being fixed in 2.5% glutaraldehyde and stained with crystal violet. Quantitations of colony growth were assessed using an ultrasensitive imaging device (LCVS-5, I.P.S., Pittsburgh, Pa.). A colony is defined as any cluster of 30 or more cells. Percent inhibition was directly measured against control plates containing no drugs.
A short description of data set [2]: d-Tetrandrine-(S) detected at the tumor. Format: in vivo, mice. The settings on record: 3 intraperitoneal injections over 120 hours, 150 mg/kg total.
For data set [3], the system named is resistant (K562-R7) cancel cells. The data set can be described thus: doxorubicin fluorescence test by flow cytometry. Format: cell-based. The settings on record: FIG. 12, resistant cells pre-incubated with tetrandrine. (In general: Flow cytometry measures light scatter and fluorescence of single cells or particles in a stream.)
Data set [4] deals with breast cancer. Description: treatment of a person with breast cancer. It is filed as in vivo, human. Conditions: d-tetrandrine 180 mg per day orally from day 95, with trichemo (5-fluorouracil, cyclophosphamide, doxorubicin). How it is done: A person with breast cancer was given d-tetrandrine orally, three times a day for a total of 180 mg per day, over a two week period. Five days after the beginning of that treatment, they were given a trichemo soup of 5-fluorouracil, cyclophosphamide and doxorubicin. Eight days later, near the end of the d-tetrandrine dosage, they were given 5-fluorouracil. This regime was followed two different times approximately two weeks apart during the course of retreatment.
A person with very serious breast cancer has also been successfully treated in accordance with the method of the present invention. The tables below describe their treatment regime, which involved a trichemo soup of 5-fluorouracil, cyclophosphamide and doxorubicin, administered intermittently with 5-fluorouracil alone. No d-tetrandrine was administered until day 95.
FIG. 11 is a graphical log of […] tumor area in cubic centimeters charted against days elapsed. The tumor initially responded to the trichemo treatment alone, reducing in size until day 50.
The patient was diagnosed via biopsy on Mar. 19, 1991 as having an infiltrated carcinoma (poorly differentiated) on the right breast. […] They were treated with a combination of 5-fluorouracil, cyclophosphamide and doxorubicin according to the schedule shown below. […] Notice the increase in tumor size between days 50 and 100 indicating the formation of drug resistance.

Data set [5] deals with multidrug resistant human cancer (DX20). Format: in vivo, mice. Conditions: d-tetrandrine 0.5, 1, 1.5 mg injections; doxorubicin 5.5 mg per kg; about one month. The method, then:
It is only important that they be administered sufficiently close together that the cancer is exposed to both simultaneously. For example, nude mice infected with a multidrug resistant human cancer were given 0.5 mg, 1 mg and 1.5 mg respectively in three separate injections, 72 hours apart.

Data set [6] relates to CQ-sensitive (FCMSU1/Sudan) strain of P. falciparum. The data set can be described thus: 3H-adenosine incorporation, chloroquine-sensitive P. falciparum. It is filed as cell-based. The method, then: Chloroquine and qinghaosu are commonly used antimalarial drugs.
The dose (IC50) of each drug or each drug combination required to effect a 50% inhibition in the malarial activity of each strain was determined by establishing a dose response curve for each.
FCMSU1/Sudan strain and cloned Indochina (W-2) strain of P. falciparum were used. […] The two strains of the parasite were cultured according to the candle jar method of Trager and Jensen, Science, Vol. 193, pages 673-675 (1976). In a given experiment, four-day-old Petri dish cultures (approximately 10% parasitemia) were diluted with medium containing an amount of noninfected type A human erythrocytes to obtain a culture with a final hematocrit of 1.5% and parasitemia of 0.5-1.0%. The resulting culture was ready for addition to microtitration plates with ninety-six flat-bottom wells.
The testing procedure used was similar to that described by Desjardins et al. in “Antimicrobial Agents and Chemotherapy,” Vol. 16, pages 710-718 (1979). […] 25 microliters radioactive (0.5 microCi) [2,8-^3H] adenosine. The microtitration plates were incubated in a candle jar for an additional 18 hours, at 37° C.
As the malaria parasite grows ^3H-adenosine is metabolized and incorporates into polymeric RNA and DNA. The labeled polymers are trapped on glass fiber filters and unincorporated material is washed away. In the absence of drug there is 100% incorporation of the labeled material. When drugs interfere (directly or indirectly), an inhibitory dose of 50% (IC50) can be calculated. The experiments were repeated three times except where noted. Statistical analysis was done using Student's T-test for significance. Van Kyke et al. “Exp. Parasitol,” Vol. 64, pages 418-423 (1987).
The test procedure was basically the same as outlined above.

The nature of data set [7]: L.D.50 by single escalating injections. Format: in vivo, mice. How it is done:
In addition, the effects of d-Tetrandrine-(S) plus doxorubicin in Nu/Nu athymic mice inoculated with DX20 sarcoma cells, 76×resistant when compared to the parent MES-SA cells were examined. Four cohorts of nude animals bearing the DX20 tumor were treated in groups of 5 (control, doxorubicin, d-tetrandrine, and doxorubicin+d-tetrandrine). […] (See FIG. 6). Tumor size was calculated using the formula (4 Pi/3) X*Y*2Z. […] An L.D.50 dose of 260 mg/kg was also calculated by administering single escalating injections of the compound. Tables I & II and FIG. 6 give the actual measurements.

Structures are written as SMILES. Entries after “also recorded” stand apart in the source; their conditions may differ. Like-named read-outs stand apart in the source and are kept apart here.

Broadly, the IC50 is the concentration at which inhibition is half-maximal. As to `COc1ccc2cc1Oc1ccc(cc1)C[C@H]1c3cc(c(OC)cc3CCN1C)Oc1c(OC)c(OC)cc3c1[C@H](C2)N(C)CC3` [TT, tetrandrine], the doxorubicin-resistance reversal entry in data set [1] is on record as “either partially or completely reversed”. Besides, in data set [2], the “d-Tetrandrine-(S) detected at the tumor” value is 54 micrograms/gram tissue. The entries for the “doxorubicin concentration (fluorescence) in resistant versus sensitive cells” value in data set [3] (listed as d-tetrandrine) and in data set [3] (listed as tetrandrine (TT)) were “greater in the resistant cancer than it is in the sensitive cancer” and “contains more doxorubicin than the sensitive strain”, respectively. Moreover, in data set [4], the “tumor outcome in patient” value is given as “substantially eliminated; also recorded: continued to diminish to nonexistence by day 175”. The tumor outcome in data set [5] is given as “very large tumors which were unabated”. In addition, the IC50 in data set [6] (S STRAIN, TT/CQ 10:1, mean ± S.D, read-out: IC50 DRUG COMBINATION TT(2.0 uM) CQ(0.2 uM)) turned out to be 114 ± 23 nM; in data set [6] (S STRAIN, TT/QHS 10:1, mean ± S.D, read-out: IC50 DRUG COMBINATION TT(2.0 uM) QHS(0.2 uM)), 114 ± 6.3 nM; in data set [6] (Table III, S STRAIN, mean ± S.D, read-out: IC50 SINGLE DRUG), 498 ± 93.7 nM; in data set [6] (Table IV, S STRAIN, mean ± S.D, read-out: IC50 SINGLE DRUG) it was 410 ± 69 nM; in data set [6] (Table VII, chloroquine-sensitive strain, drug alone, read-out: IC50 S), 290 nM; in data set [6] (read-out: IC50 DRUG COMBINATION TT(1.0 uM) CQ(0.3 uM), S STRAIN, TT/CQ 10:3, mean ± S.D), 54.9 ± 7.1 nM. The IC50 was determined as 71.9 ± 8.9 nM in data set [6] (read-out: IC50 DRUG COMBINATION TT(1.0 uM) QHS(0.3 uM), S STRAIN, TT/QHS 10:3, mean ± S.D); 223 ± 38.6 nM in data set [6] (read-out: IC50 DRUG COMBINATION TT(3.0 uM) CQ(0.1 uM), S STRAIN, TT/CQ 30:1, mean ± S.D); 220 ± 35.5 nM in data set [6] (read-out: IC50 DRUG COMBINATION TT(3.0 uM) QHS(0.1 uM), S STRAIN, TT/QHS 30:1, mean ± S.D). The L.D.50 dose in data set [7] was 260 mg/kg.
